Test results as given in US20060039955A1, “Animal feed compositions with enhanced histidine content” (Cargill, Incorporated, priority 2004, published 2006).

Legend:
[1] = Poultry digestibility trial (intestinal digestibility of His and Lys sources); type: in vivo
Description: This trial tested four different sources of AA for their intestinal digestibility. Crystalline His and Lys were coated with partially hydrogenated vegetable oil to test their digestibility as compared to His(HCl) and Lys(HCl), respectively. His(HCl) contains 74.3 wt. % His, whereas, the coated product contains 40 wt. % His. Lys(HCl) contains 78.8 wt. % Lys, whereas, the coated product contains 45 wt. % Lys. For this trial the test articles were added at low levels. The control diet was used as a blank to measure endogenous losses and to calculate the digestibility of His and Lys. The control diet was spiked with His or Lys by using either His(HCl) or Lys(HCl), respectively, (0.50% inclusion rate). This provided His and Lys at 0.372% and 0.394%, respectively. The coated His and Lys products were added to provide the same level of His or Lys as provided by the His(HCl) or Lys(HCl), respectively. The digestibility of His and Lys in the casein was determined and this effect was assessed in calculating the digestibility of the coated His and coated Lys. All test diets contained the same amount of casein (the only other source of His and Lys) as the control diet.

[2] = parameters: species or system cows; settings: cow, in vivo
Description: Free Amino Acid degradation in vivo was determined using a technique that used cobalt (CoII) as a ruminal flow marker to follow the flow of Maillard-protected histidine (which had been reacted with lactose) out of the rumen. Maillard-protected histidine loss was evaluated relative to CoII outflow in fistulated cows. Free histidine or histidine modified by the Maillard Reaction Protocol were introduced into fistulated cows together with Cobalt II. After introducing the histidine or modified histidine into the cows, samples of rumen fluid periodically were withdrawn and the amount of histidine was determined using an O-phthaldialdehyde assay as described by Roth (1971), Anal. Chem. 43:880. The amount of CoII was determined using inductively coupled plasma emission spectroscopy. The amount of histidine related to CoII was plotted versus time to calculate a degradation coefficient (Kd) for free and protected histidine.

Cl.N[C@@H](Cc1c[nH]cn1)C(=O)O [Histidine HCl]
App. His Dig. ([1]; apparent histidine digestibility, His at 0.372% of diet): 99.3 | True His. Dig. ([1]; true histidine digestibility, His at 0.372% of diet): 100.2

Cl.NCCCC[C@H](N)C(=O)O [Lysine HCL]
App. Lys. Dig. ([1]; apparent lysine digestibility, Lys at 0.394% of diet): 97.3 | True Lys Dig. ([1]; true lysine digestibility, Lys at 0.394% of diet): 99.6

N[C@@H](Cc1c[nH]cn1)C(=O)O [free histidine, histidine]
degradation coefficient (Kd) [2]: 0.000208 to 0.000264 s⁻¹
